Assay results published in patent publication US10377747B2, “2-arylamino pyridine, pyrimidine or triazine derivatives, preparation method and use thereof” (Wuxi Shuangliang Biotechnology Co., Ltd., priority 2015, dated 2019).

Experiments:
[1] = tested on: A431 (human epidermal cancer cells, EGFR wild type); assay: Tumor cell proliferation and growth inhibition analysis (Cell Titer-Glo, 72 h), A431; type: cell-based; conditions: A-431, 72 h exposure
From the text: (§1) […] cell proliferation assay is described as follows.
(§2) Tumor cell proliferation and growth inhibition analysis: H1975 (non-small-cell lung cancer cells. EGFR L858K/T790M) and A431 (human epidermal cancer cells, EGFR wild type) cells were commercially available from the ATCC cell bank. […] The growth medium for A431 cells was DMEM (GIBCO, 11995-065), 10% fetal bovine serum. The influence exerted by the compounds on the proliferation activity of tumor cells was detected by Cell Titer-Glo assay. Tumor cells were exposed to the treatment conditions for 72 h, and the cell density used in each experiment for each cell line was adjusted according to the 72 h cell growth curve. 10 concentration gradients and three-fold dilutions (0.5 nM-10 μM) were set for compounds to be tested, and 3 parallel controls were used for each concentration value.
(§3) Trypsin was used for digesting cells in the logrithmic growth phase to prepare cell suspension, which was counted by a Roche counter and appropriately diluted with complete medium to a final cell concentration of 1˜2×10^3 cell/mL. 384-well plates were seeded with cells, and 22.6 μL were seeded for each well. 3 parallels were set. The plates were incubated in an incubator with 5% CO2 at 37° C. overnight. The compounds were dissolved in DMSO to prepare […] mother liquor. […] 2 μL of compound solution was added into 18 μL of culture medium, and fully mixed. Then 2 μL of mixed solution of compound and culture medium was added into 18 μL of culture medium, and fully mixed. 2.4 μL of mixtures were added into a 384-well plates. […] After cultivation for 72 h, 24 μL of Cell Titer-Glo reagent was added. The contents were mixed on an orbital shaker for 2 min to induce cell lysis. The 384-well plates were incubated at room temperature for 10 min to stabilize the […] signal value. Data was read by Infinite® M1000 PRO (TECAN), and calculated with GraphPad Prism version 5.0. GI50 value was obtained by adjustment using a non-linear regression model of dose response curves.

[2] = tested on: H1975 (non-small-cell lung cancer cells. EGFR L858K/T790M); assay: Tumor cell proliferation and growth inhibition analysis (Cell Titer-Glo, 72 h), H1975; type: cell-based; conditions: Homo sapiens, NCI-H1975; H1975 cells, 72 h exposure, Cell Titer-Glo; read-out: H1975 GI50
From the text: as §1, §2, §3

Compound	GI50 [1] [nM]	GI50 [2] [nM]
C=CC(=O)Nc1cc(Nc2ncnc(-c3cccc4cc[nH]c34)n2)c(OC)cc1N1CC(N(C)C)C1 [Example 35, N—(5-((4-(1H-indol-7-yl)-1,3,5-triazin-2-yl)amino)-2-(3-(dimethylamino)azetidin-1-yl)-4-methoxyphenyl)acylamide]	3320	1560
C=CC(=O)Nc1cc(Nc2cc(-c3nn(C)c4ccsc34)ccn2)c(OC)cc1N(C)CCN(C)C [Example 41, N-(2-((2-(dimethylamino)ethylmethyl)amino)-4-methoxy-5-((4-(1-methyl-1H-thieno[3,2-c]pyrazol-3-yl)pyridin-2-yl)amino)phenyl)acrylamide]	~800	~36.5
C=CC(=O)Nc1cc(Nc2nccc(-c3noc4ccccc34)n2)c(OC(F)F)cc1N(C)CCN(C)C [Example 6, N-(5-((4-(benzo[d]isoxazol-3-yl)pyrimidin-2-yl)amino)-4-(difluoromethoxy)-2-((2-(dimethylamino)ethyl)(methyl)amino)phenyl)acrylamide]	89.1	4
C=CC(=O)Nc1cc(Nc2cc(-c3cnn4cccnc34)ccn2)c(OC)cc1N(C)CCN(C)C [Example 43, N-(2-((2-(dimethylamino)ethyl)(methyl)amino)-4-methoxy-5-((4-(pyrazolo[1,5-a]pyrimidin-3-yl)pyridin-2-yl)amino)phenyl)acrylamide]	267	19.1
C=CC(=O)Nc1cc(Nc2nccc(-c3cn(C)c4cccnc34)n2)c(OC(F)F)cc1N1CC2(CCCN2C)C1 [Example 23, N-(4-(difluoromethoxy)-5-((4-(1-methyl-1H-pyrrolo[3,2-b]pyridin-3-yl)pyrimidin-2-yl)amino)-2-(5-methyl-2,5diazaspiro[3.4]oct-2-yl)phenyl)acryl amide]	2440	110
C=CC(=O)Nc1cc(Nc2nccc(-c3noc4ccccc34)n2)c(OC(F)F)cc1N1CCC(N(C)C)CC1 [Example 9, N-(5-((4-(benzo[d]isoxazol-3-yl)pyrimidin-2-yl)amino)-4-(difluoromethoxy)-2-(4-(dimethylamino)piperidin-1-yl)phenyl)acrylamide]	> 1000	24.2
C=CC(=O)Nc1cc(Nc2nccc(-c3cn(C)c4cccnc34)n2)c(OC(F)F)cc1N1CCC(N(C)C)CC1 [Example 21, N-(4-(difluoromethoxy)-2-(4-(dimethylamino)piperidin-1-yl)-5-((4-(1-methyl-1H-pyrrolo[3,2-b]pyridin-3-yl)pyrimidin-2-yl)amino)phenyl)acrylamide]	319	35.9
